For one test, the system named is mice. The test can be described thus: Porsolt's swim test (Behavioural Despair Test). Conditions: for Duration of immobility ± Standard Error of Mean: 30 minutes before the test, last 4 of 6 minutes. The test is classed as in vivo. The method, then: The “Behavioural Despair Test” or “Porsolt's Forced Swim Test” is a validated animal model for depression (see T. Nagatsu, NeuroToxicology 2004, 25, 11-20, especially p. 16, right column in the middle, in combination with Porsolt et al., Arch. Int. Pharmacodyn. 1977, 229, 327-336). It responds to enhancement of the transmission of several neurotransmitters including serotonine, dopamine and noradrenaline.
The test, which detects antidepressant activity, was carried out as described by Porsolt et al. in Arch. Int. Pharmacodyn. 1977, 229, 327-336. Mice which are forced to swim in a situation from which they cannot escape rapidly become immobile. Antidepressants decrease the duration of immobility.
Mice were individually placed in a cylinder (Height=24 cm, Diameter=13 cm) containing 10 cm water (22° C.) from which they could not escape. The mice were placed in the water for 6 minutes and the duration of immobility during the last 4 minutes was measured.
10 mice were studied per each of the four groups. The test was performed blind, i.e. the person carrying out the experiment was different from the person injecting the mice and didn't thus know to which of the four groups each mouse belonged.
Obliquin was evaluated at 3 doses each: at 10, 30, and 80 mg/kg body weight, administered intraperitonally 30 minutes before the test, and compared with a control group. The thus administered obliquin was dissolved in a saline solution containing 3 weight-% DMSO and 3 weight-% Tween® 80 (so called “vehicle”). To the control group the vehicle consisting of the saline solution containing 3 weight-% DMSO and 3 weight-% Tween® 80 was administered intraperitonally.
Data were analyzed by comparing the treated groups with the control group using the unpaired Student's T tests and Analysis of Variance (ANOVA).

The target in a further test is T1, MAO-A (Homo sapiens, UniProt P21397).
T1 construct: purchased Sigma M7316
T1 sequence (P21397 1-527): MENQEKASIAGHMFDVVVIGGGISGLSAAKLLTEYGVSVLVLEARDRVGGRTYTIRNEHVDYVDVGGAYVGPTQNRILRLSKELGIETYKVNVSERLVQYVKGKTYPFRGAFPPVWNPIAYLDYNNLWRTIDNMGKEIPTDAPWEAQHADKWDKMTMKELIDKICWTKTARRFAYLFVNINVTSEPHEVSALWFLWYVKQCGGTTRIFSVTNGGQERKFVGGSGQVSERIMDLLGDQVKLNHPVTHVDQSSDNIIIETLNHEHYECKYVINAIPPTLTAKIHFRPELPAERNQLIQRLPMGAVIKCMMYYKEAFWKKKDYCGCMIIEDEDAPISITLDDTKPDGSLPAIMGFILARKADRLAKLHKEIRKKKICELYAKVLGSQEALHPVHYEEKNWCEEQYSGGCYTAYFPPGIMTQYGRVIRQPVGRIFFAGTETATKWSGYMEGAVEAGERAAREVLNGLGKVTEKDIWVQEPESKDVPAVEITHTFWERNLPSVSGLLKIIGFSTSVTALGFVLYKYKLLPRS
Briefly: MAO-A inhibition, Amplex Red Monoamine Oxidase Assay Kit, colorimetric. The test is classed as biochemical. Conditions: substrate p-tyramine. As for the experimental part: (§1) From a stock solution of 0.0405 g of racemic obliquin (92.5%; equal to 37.5 mg of pure compound) in 750 μl of dimethylsulfoxide (DMSO), working solutions were prepared with a concentration of obliquin of 4. 10^−4M in reaction buffer (0.05 M sodium phosphate, pH 7.4, 0.2% DMSO). The final concentrations of obliquin in the test system were 10^−4 M, 10^−5 M, 10^−6 M, 10^−7 M.
(§2) For determining the inhibition of monoaminoxidases' activity, the Amplex Red Monoamine Oxidase Assay Kit (Molecular Probes Nr._A-12214, Colorimetric version) was conducted according to manufacturers instructions.
(§3) As substrates for MAO-A enzyme (Sigma Nr. M7316) p-tyramine and as substrate for MAO-B enzyme (Sigma Nr. M7441) benzylamine were used. The concentration of MAO-A enzyme was 8 Units/ml, and that of MAO-B 4 Units/ml in the working solution.
(§4) MAO-A and MAO-B Assay, Colorimetric Version:
(§5) For the assay, 50 μl of each working solution (see above) were used. As control solution, the obliquin containing working solution was replaced by 50 μl of the reaction buffer.
(§6) 50 μl of diluted MAO-A with a final concentration of 2 Units/ml and 50 μl of diluted MAO-B with a final concentration of 1 Unit/ml, respectively, were added.
(§7) 100 μl of the Amplex solution containing horseradish peroxidase (2 U/ml) and the substrate tyramine (for MAO-A) or the substrate benzylamine (for MAO-B) were added.
(§8) To allow a subtraction of the background absorption a mixture of 100 μl of the Amplex solution and 100 μl of the reaction buffer was measured as a “blank”.
(§9) The samples were incubated at room temperature in the dark for 1 hour, and then the extinction at 535 nm determined in a Softmax Microplate photometer (Molecular Device).

For a further test, the target named is T2, MAO-B (Homo sapiens, UniProt P27338).
T2 construct: purchased Sigma M7441
T2 sequence (P27338 1-520): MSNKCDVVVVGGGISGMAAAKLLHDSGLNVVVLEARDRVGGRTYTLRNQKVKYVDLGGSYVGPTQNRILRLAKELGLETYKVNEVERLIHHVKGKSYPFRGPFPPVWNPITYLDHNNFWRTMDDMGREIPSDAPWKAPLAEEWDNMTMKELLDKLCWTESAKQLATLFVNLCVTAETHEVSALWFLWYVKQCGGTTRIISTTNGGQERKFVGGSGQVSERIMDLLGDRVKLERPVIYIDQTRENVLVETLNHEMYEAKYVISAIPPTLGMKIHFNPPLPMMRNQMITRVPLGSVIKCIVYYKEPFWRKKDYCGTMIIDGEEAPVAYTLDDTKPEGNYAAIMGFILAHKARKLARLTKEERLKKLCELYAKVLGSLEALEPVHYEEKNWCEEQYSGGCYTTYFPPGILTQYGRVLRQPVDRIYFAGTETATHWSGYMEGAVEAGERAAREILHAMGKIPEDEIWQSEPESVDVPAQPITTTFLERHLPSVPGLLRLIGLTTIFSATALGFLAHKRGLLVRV
The test can be described thus: MAO-B inhibition, Amplex Red Monoamine Oxidase Assay Kit, colorimetric. Type of test: biochemical. The method, then: as §1, §2, §3, §4, §5, §6, §7, §8, §9

Usually inhibition stands for the share of the control response that was lost under treatment. A lower inhibition goes with a weak effect. For `C=C(C)[C@H]1COc2cc3oc(=O)ccc3cc2O1` (racemic) [Obliquin, obliquin], the “Duration of immobility ± Standard Error of Mean” value in the test with mice (mice, 10 mg/kg body weight i.p.) was determined as 170.4 ± 11.1 s; in the test with mice (mice, 30 mg/kg body weight i.p.), 150.9 ± 9.6 s; in the test with mice (mice, 80 mg/kg body weight i.p., p < 0.01 vs control), 132.1 ± 10.5 s. Besides, the “Dose dependence of effect on immobility time” value in the test with mice (mice, 10, 30, 80 mg/kg i.p., ANOVA p<0.05) is on record as “significant dose dependent effect”. Moreover, the “Reduction of immobility time” value with mice (mice, highest dose group (80 mg/kg i.p.), vs control group) stood at 25%. For the same compound, the inhibition at 0.1 µM was 2% at MAO-A (obliquin 1 x 10^−7 M) and 8.3% on MAO-B (obliquin 1 x 10^−7 M, substrate benzylamine). The inhibition at 1 µM came out at 2% against MAO-A (obliquin 10 x 10^−7 M) and 33.3% against MAO-B (obliquin 10 x 10^−7 M, substrate benzylamine). For the same compound, the inhibition at 10 µM turned out to be 6.5% against MAO-A (obliquin 100 x 10^−7 M) and 76.9% against MAO-B (obliquin 100 x 10^−7 M, substrate benzylamine). The inhibition at 100 µM against MAO-A (obliquin 1000 x 10^−7 M) was determined as 24.1%; on MAO-B (obliquin 1000 x 10^−7 M, substrate benzylamine) it was 91.5%. Further, at MAO-B (compared with MAO-A), the “MAO inhibition specificity MAO-B versus MAO-A” value is recorded as “higher specificity for MAO-B than for MAO-A”.

These data come from US8044094B2, “Agents for preventing and treating disorders connected to impaired neurotransmission” (DSM IP Assets B.V., priority 2004, dated 2011).
